“And” between values parts separate entries of the source, which are not always exact repeats. Equal entries are not always repeated. Where two headings read alike, the source gives them in different places.
Columns and labels:
MCF-7 = assay: MTT cytotoxicity assay against breast cancer cell line MCF-7; details: for Cytotoxic activity class against MCF-7: class by IC50
Protocol: All our newly synthesized hybrids were evaluated for their in vitro anticancer activity by the standard MTT assay against a breast cancer cell line (MCF-7). MTT is a calorimetric assay which relies on the ability of live tumor cells to reduce yellow MTT (3-(4,5-dimethylthiazol-2-yl)-2,5-diphenyltetrazolium bromide) to purple formazan by mitochondrial dehydrogenases, then added DMSO to dissolve the purple formazan and quantified by measuring absorbance at a certain wavelength. The dose response curve for compounds-treated vs. untreated cells is used to quantify the amount of formazan produced to report on the effectiveness of the compounds. […] Cell line: Mammary gland breast cancer (MCF-7). The cell line was obtained from ATCC via Holding company for biological products and vaccines (VACSERA), Cairo, Egypt. […] The cell line elucidated above were used to determine the inhibitory effects of compounds on cell growth using the MTT assay. […] After incubation, the cells were treated with different concentrations of compounds and incubated for an additional 24 h. After 24 h of drug treatment, 20 µL of MTT solution at 5 mg/mL was added and incubated for 4 h. […] The relative cell viability in percentage was calculated as (A570 of treated samples/A570 of the untreated sample) × 100 [48].

Pin1 [1] = target: T1, Pin1 (Homo sapiens, UniProt Q13526); assay: Pin1 inhibition assay (SensoLyte Green Pin1 Assay Kit); assay type: biochemical; design: purchased; details: for inhibition at 0.0001 µg/mL: conc 0.1 ng/ml; for inhibition at 0.0001 µg/mL / inhibition at 0.001 µg/mL / inhibition at 0.01 µg/mL / inhibition at 0.1 µg/mL: read-out: Pin1 %inh; for inhibition at 0.001 µg/mL: conc 1 ng/ml; for inhibition at 0.01 µg/mL: conc 10 ng/ml; for inhibition at 0.1 µg/mL: conc 100 ng/ml; for IC50: means ± SD of three experiments
Protocol: The ability of the synthesized compounds to inhibit the Pin1 activity was evaluated using the SensoLyte® Green Pin1 Assay Kit. This assay is based on using a fluorogenic substrate which was pretreated to convert it into the cis isomer. Pin1 can change this substrate into the trans isomer that is easily cleaved to generate a fluorescent signal.

[2] = In vitro cytotoxicity against normal Human lung fibroblast (WI38) cell line; assay type: cell-based; details: human, WI38 normal lung fibroblast cells
Pin1 [3] = target: T1, Pin1; assay: 2D 15N-1H HSQC NMR binding to 15N-labeled Pin1; design: Backbone and side-chain chemical shift assignments of full-length, apo, human Pin1; made in house; details: Pin1 200 µM, compound 1 mM, 5% DMSO
Source text: Herein, ^15N-labeled Pin1 enzyme is used where we recorded HSQC spectra of the protein alone and in the presence of an excess amount of one of the newly synthesized compounds. The main challenge we faced in our research was the compound solubility in a balanced mixture of the protein aqueous buffer. Although our compound was freely soluble in DMSO, it is inapplicable to use pure DMSO to dissolve the protein because this will result in protein denaturation and probably aggregation. Therefore, only one compound was tested where we were able to dissolve it partially in a mixture of 95% buffer and 5% DMSO. In addition, as a control, the spectrum was recorded only in presence of DMSO and compared to the ones with the ligand. The proportion of Pin1 to the compounds was adjusted to be […]. […] Chemical shift perturbation and peak shifting are indicative of fast exchange between free and bound states which results in peak positions averaging. […] This peak disappearing indicated exchange on the μs–ms time scale (Figure 1). Furthermore, our NMR results have been verified using cell lines.
The expression and purification of ^15N-labeled Pin1 was performed according to the known protocol. The enzyme sample reached a final concentration of 200 µM in PBS buffer at pH = 6.5. Compound number 12 was dissolved in DMSO and added to the protein to achieve a final concentration of 1 mM in the NMR tube. […]

Pin1's PPIase activity = target: Pin1's PPIase activity; design: method as in PMID 19969456; details: read-out: IC50 of Pin1's PPIase activity inhibition; cited from earlier work
[4] = Homo sapiens, MCF7, 24 h, read-out: In Vitro Cytotoxicity IC50 MCF-7, MTT assay, 24 h treatment
[5] = Homo sapiens, MCF7, read-out: IC50 against breast cancer cell line (MCF-7), MTT assay, section 2.2

T1 sequence (Q13526 whole entry): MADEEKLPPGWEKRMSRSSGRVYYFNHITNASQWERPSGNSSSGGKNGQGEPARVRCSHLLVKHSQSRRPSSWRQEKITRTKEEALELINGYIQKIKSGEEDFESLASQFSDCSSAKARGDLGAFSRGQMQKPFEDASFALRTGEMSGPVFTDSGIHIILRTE

| Compound | melting point [°C] | IC50 (MCF-7; [4]) [µM] | Cytotoxic activity class against MCF-7 (MCF-7) | also measured |
| --- | --- | --- | --- | --- |
| 2-(4-Bromophenyl)-7,8-dichlorobenzo[4,5]imidazo[1,2-a]pyridin-4-ol [Compound 14] |  |  |  | IC50 (MCF-7): 46 ± 2.9 µM |
| CC(O)c1nc2cc(Cl)c(Cl)cc2[nH]1 (stereo not shown) [Compound 2] |  |  |  | inhibition at 0.0001 µg/mL (Pin1 [1]): 39.2%; inhibition at 0.001 µg/mL (Pin1 [1]): 51.1%; inhibition at 0.01 µg/mL (Pin1 [1]): 67%; inhibition at 0.1 µg/mL (Pin1 [1]): 85.2% |
| CN(C)c1ccc(/C=C/C(=O)c2nc3cc(Cl)c(Cl)cc3[nH]2)cc1 [Compound 4, (E)-1-(5,6-Dichloro-1H-benzo[d]imidazol-2-yl)-3-(4-(dimethylamino)phenyl)prop-2-en-1-one] | 258 to 260 | 26.9 | moderate (21–50 (moderate)) | IC50 (MCF-7; read-out: In Vitro Cytotoxicity IC50 MCF-7, MTT assay, 24 h treatment): 26.8 ± 2.1 µM |
| CN(C)c1ccc(C2=NN=C(c3nc4cc(Cl)c(Cl)cc4[nH]3)C2)cc1 [Compound 5, 4-(5-(5,6-Dichloro-1H-benzo[d]imidazol-2-yl)-4H-pyrazol-3-yl)-N,N-dimethylaniline] | 216 | 11.7 ± 0.9 | strong (11–20 (strong)) | IC50 (MCF-7; [5]): 11.8 µM; IC50 at 24 h [2]: 67.9 ± 3.6 µM; IC50 (Pin1 [1]): 0.00064 ± 3e-05 µM |
| CN(C)c1ccc(-c2cc(-c3nc4cc(Cl)c(Cl)cc4[nH]3)nc(N)c2C#N)cc1 [Compound 6, 2-Amino-6-(5,6-dichloro-1H-benzo[d]imidazol-2-yl)-4-(4-(dimethylamino)phenyl)nicotinonitrile] | 168 to 170 | 15.4 ± 1.3 | strong (11–20 (strong)) | IC50 (MCF-7; [5]): 15.5 µM |
| CN(C)c1ccc(C2C=C(c3nc4cc(Cl)c(Cl)cc4[nH]3)OC(N)=C2C#N)cc1 (stereo not shown) [Compound 7, 2-Amino-6-(5,6-dichloro-1H-benzo[d]imidazol-2-yl)-4-(4-(dimethylamino)phenyl)-4H-pyran-3-carbonitrile] | 150 | 21 ± 1.8 | moderate (21–50 (moderate)) |  |
| CC(=O)c1nc2cc(Cl)c(Cl)cc2n1CC(=O)c1ccc(Br)cc1 [Compound 9, 2-(2-Acetyl-5,6-dichloro-1H-benzo[d]imidazol-1-yl)-1-(4-bromophenyl)ethan-1-one] | 322 | 63.9 ± 3.4 |  | inhibition at 0.0001 µg/mL (Pin1 [1]): 34.7%; inhibition at 0.001 µg/mL (Pin1 [1]): 42.2%; inhibition at 0.01 µg/mL (Pin1 [1]): 69.5%; inhibition at 0.1 µg/mL (Pin1 [1]): 87.5% |
| O=C(O)c1cc2ccccc2[nH]1 [Indole-2-carboxylic acid (I), Indole-2-carboxylic acid] |  |  |  | IC50 (Pin1's PPIase activity): 16 µM |
| Tannic acid [reference compound] |  |  |  | IC50 (Pin1 [1]): 0.000535 µM and 0.00053 µM |

The next lines start with results.

| melting point [°C] | Compound | IC50 (MCF-7; [4]) [µM] | Cytotoxic activity class against MCF-7 (MCF-7) | also measured |
| --- | --- | --- | --- | --- |
| 211 | C=C1c2nc3cc(Cl)c(Cl)cc3n2C=C(c2ccc(Br)cc2)N1c1ccc(C)cc1 [Compound 10, 3-(4-Bromophenyl)-7,8-dichloro-1-methylene-2-(p-tolyl)-1,2-dihydrobenzo[4,5]imidazo[1,2-a]pyrazine] | 53 ± 3.1 | weak (51–100 (weak)) |  |
| 106 | C=C1c2nc3cc(Cl)c(Cl)cc3n2C=C(c2ccc(Br)cc2)N1c1ccccc1C [Compound 11, 3-(4-Bromophenyl)-7,8-dichloro-1-methylene-2-(o-tolyl)-1,2-dihydrobenzo[4,5]imidazo[1,2-a]pyrazine] | 38 ± 2.7 | moderate (21–50 (moderate)) |  |
| 85 | C=C1c2nc3cc(Cl)c(Cl)cc3n2C=C(c2ccc(Br)cc2)N1Cc1ccccc1 [Compound 12, 2-Benzyl-3-(4-bromophenyl)-7,8-dichloro-1-methylene-1,2-dihydrobenzo[4,5]imidazo[1,2-a]pyrazine] | 31.3 ± 2.5 | moderate (21–50 (moderate)) | IC50 at 24 h [2]: 45.7 ± 2.8 µM; IC50 (Pin1 [1]): 0.00111 µM and 0.0011 µM; Binding to Pin1 by HSQC spectra overlay (Pin1 [3]): chemical shift perturbation and peak disappearance |
| 290 | Cc1nc(-c2ccc(Br)cc2)cn2c1nc1cc(Cl)c(Cl)cc12 [Compound 13, 3-(4-Bromophenyl)-7,8-dichloro-1-methylbenzo[4,5]imidazo[1,2-a]pyrazine] | 71.8 ± 3.8 | weak (51–100 (weak)) | IC50 (MCF-7; [5]): 71.9 µM |

Reference: paper PMC9414874, “New Benzimidazoles Targeting Breast Cancer: Synthesis, Pin1 Inhibition, 2D NMR Binding, and Computational Studies” (Molecules, 2022)
